Patent US11872219B2 (priority 2018, dated 2024)

How the values were obtained:
[1] = system: rats (acute thermal nociception); experiment: tail flick assay, intrathecal administration; format: in vivo, rat; conditions: intrathecal 0.1, 1 or 10 μg on successive days, 1 hr post-drug, vs baseline and saline
Protocol: As a general matter, rats underwent implantation of a catheter for drug delivery into the lumbo-thoracic intrathecal space. A polyurethane catheter was inserted through an incision in the atlanto-occipital membrane and passed caudally to the lumbar level. The distal part of the catheter was exteriorized and connected to a Pinport access port (Instech). Each rat received a standard protocol of anesthesia and antibiotics. Patency checks of the catheter system were performed once weekly following surgeries using 0.02 mL of physiological saline continuing until completion of the dosing period. The Pinport was wiped with alcohol prior to any injection. A minimum of 9-10 days was allowed between surgery and the first dosing in order for the rats to recover fully from surgical trauma. Intrathecal injection of test items always involved the following procedure: test items were administered by slow bolus injection via the Pinport connected to the intrathecal catheter. The dose volume for each animal was fixed at 10 μL and injected slowly over duration of ˜5 minutes. Following dose administration, the catheter was flushed with 20 μL of physiological saline.
A Tail-Flick Analgesia Meter (Columbus Instruments) was used. […] Afterwards, baseline tail-flick latency was measured using a lamp intensity adjusted such that the baseline tail-flick latencies were in the 6-8 second range. […]

[2] = system: rats (monosodium-iodoacetate model of osteoarthritis); experiment: monosodium-iodoacetate model of osteoarthritis: lameness (dynamic weight bearing); conditions: for lameness (% RL-% RR), early and late phase: intrathecal, 1 hr post-drug, vs intrathecal saline
[3] = systemically administered, Hirao et al. 2008, cited from earlier work
[4] = system: rats (monosodium-iodoacetate model of osteoarthritis); experiment: monosodium-iodoacetate model of osteoarthritis: locomotor activity (total distance travelled)
human delta receptor = human delta receptor (Homo sapiens, UniProt P41143); conditions: Ferrari et al. 2017; cited from earlier work
Chain of human delta receptor (P41143 whole entry): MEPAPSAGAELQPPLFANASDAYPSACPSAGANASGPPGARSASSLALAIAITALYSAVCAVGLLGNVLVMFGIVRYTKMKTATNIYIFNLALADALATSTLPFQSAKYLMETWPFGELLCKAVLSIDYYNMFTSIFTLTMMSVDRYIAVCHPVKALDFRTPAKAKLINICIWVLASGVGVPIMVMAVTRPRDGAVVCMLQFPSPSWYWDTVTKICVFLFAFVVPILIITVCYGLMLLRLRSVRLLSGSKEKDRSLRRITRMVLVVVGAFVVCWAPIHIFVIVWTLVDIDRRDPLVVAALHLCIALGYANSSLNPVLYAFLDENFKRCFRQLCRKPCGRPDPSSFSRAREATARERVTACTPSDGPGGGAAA

| Compound | tail-flick latency [1] | lameness, early phase ([2]; intrathecal 1 μg, Days 2-4, vs saline) | lameness, late phase, dose-response ([2]; intrathecal 0.1, 1 or 10 μg, Days 22-24) | lameness, late phase, 1 and 10 μg ([2]; intrathecal 1 and 10 μg, Days 22-24, vs saline) | lameness (% RL-% RR), early and late phase [2] | anxiolytic effects [3] | inhibition of memory or motor function [3] | sedative side effects ([3]; appear only at much higher doses than the effective anxiolytic dose range) | locomotor activity (total distance travelled), early phase ([4]; intrathecal 1 μg, vs intrathecal vehicle) | locomotor activity (total distance travelled), late phase ([4]; intrathecal 0.1, 1 or 10 μg, 0.1 and 10 μg reached statistical significance vs vehicle) | activation of the human delta receptor (human delta receptor) | lameness, last two days of the late phase ([2]; intrathecal 15 μg, vs saline) |
| --- | --- | --- | --- | --- | --- | --- | --- | --- | --- | --- | --- | --- |
| CC1(N2CCC(n3c([C@@H]4CCCNC4)nc4ccccc43)CC2)CCCCCCC1 [MCOPPB, 1-[1-(1-methylcyclooctyl)-4-piperidinyl]-2-[(3R)-3-piperidinyl]-1H-benzimidazole] | significantly, and dose-dependently, increased TF latencies | sufficient to reduce lameness significantly | dose-related effects | significantly reduced lameness | significantly reduced lameness levels | potent anxiolytic effects | no inhibition of memory or motor function | only slight sedative side effects | did not change locomotor activity | appeared to restore locomotor activity to the level displayed by both treatment groups during the early phase | only a small amount |  |
| CN1CC[C@]23c4c5ccc(O)c4O[C@H]2[C@@H](O)C=C[C@H]3[C@H]1C5.O=S(=O)(O)O [morphine sulfate, reference compound] |  |  |  |  | significantly reduced lameness levels |  |  |  |  |  |  | statistical significance was not quite achieved |
